“And” between values parts separate entries of the source, which are not always exact repeats. Equal entries are not always repeated.
System: BDF1 mice, Adenocarcinoma 755 s.c., tumor weight T/C
Experiment: NCI In Vivo Anticancer Drug Screen. Data for tumor model Adenocarcinoma 755 (subcutaneous) in B6D2F1 (BDF1) mice
Details: endpoint: mean tumor weight, higher = larger tumour
Protocol: The antitumor activity of compounds was measured in mice bearing transplantable tumors. Survival or tumor size were measured and the results are expressed as the measurement made in the treated group (T) divided by the measurement made in the vehicle treated control group (C). The tumor model used in this assay is Adenocarcinoma 755 (subcutaneous) in B6D2F1 (BDF1) mice

[1] = dose: 15.0 mg/kg/injection, schedule: Q01DX011 (ip), vehicle: methylcellulose (MC)
[2] = dose: 31.0 mg/kg/injection, schedule: Q01DX011 (ip), vehicle: methylcellulose (MC)
[3] = dose: 18.7 mg/kg/injection, schedule: Q01DX011 (ip), vehicle: methylcellulose (MC)
[4] = dose: 75.0 mg/kg/injection, schedule: Q01DX011 (ip), vehicle: methylcellulose (MC)
[5] = dose: 150.0 mg/kg/injection, schedule: Q01DX011 (ip), vehicle: methylcellulose (MC)
[6] = dose: 25.0 mg/kg/injection, schedule: Q01DX011 (ip), vehicle: carboxymethylcellulose (CMC)
[7] = dose: 50.0 mg/kg/injection, schedule: Q01DX011 (ip), vehicle: carboxymethylcellulose (CMC)
[8] = dose: 100.0 mg/kg/injection, schedule: Q01DX011 (ip), vehicle: carboxymethylcellulose (CMC)
[9] = dose: 60.0 mg/kg/injection, schedule: Q01DX011 (ip), vehicle: carboxymethylcellulose (CMC)
[10] = dose: 120.0 mg/kg/injection, schedule: Q01DX011 (ip), vehicle: carboxymethylcellulose (CMC)
[11] = dose: 240.0 mg/kg/injection, schedule: Q01DX011 (ip), vehicle: carboxymethylcellulose (CMC)
[12] = dose: 37.5 mg/kg/injection, schedule: Q01DX011 (ip), vehicle: methylcellulose (MC)
[13] = dose: 45.0 mg/kg/injection, schedule: Q01DX011 (ip), vehicle: carboxymethylcellulose (CMC)
[14] = dose: 250.0 mg/kg/injection, schedule: Q01DX011 (ip), vehicle: saline
[15] = dose: 12.5 mg/kg/injection, schedule: Q01DX011 (ip), vehicle: methylcellulose (MC)

`CCOc1ccccc1Nc1nc(N)nc(Cl)c1CC` was tested, and the T/C [1] was 73 % of control, the T/C [2] was 79 % of control and the T/C (dose: 62.0 mg/kg/injection, schedule: Q01DX011 (ip), vehicle: methylcellulose (MC)) was 87 % of control. The T/C (dose: 125.0 mg/kg/injection, schedule: Q01DX011 (ip), vehicle: methylcellulose (MC)) was 98 % of control and the T/C (dose: 250.0 mg/kg/injection, schedule: Q01DX011 (ip), vehicle: methylcellulose (MC)) was 100 % of control.
In the case of `c1nc(SCCSc2ncnc3nc[nH]c23)c2[nH]cnc2n1`, the T/C (dose: 4.6 mg/kg/injection, schedule: Q01DX011 (ip), vehicle: methylcellulose (MC)) is reported as 93 % of control, the T/C (dose: 9.3 mg/kg/injection, schedule: Q01DX011 (ip), vehicle: methylcellulose (MC)) is reported as 86 % of control and the T/C [3] is reported as 74 % of control. For the same compound, the T/C [4] was 1 % of control and the T/C [5] was 2 % of control.
With `CSc1ncc(Br)c(=S)[nH]1` the T/C [1] was 74 % of control and the T/C [2] was 70 % of control.
`CC(=O)NNC(=O)c1ccccn1` was tested, and the T/C (dose: 75.0 mg/kg/injection, schedule: Q01DX011 (ip), vehicle: water) was 68 % of control and the T/C (dose: 100.0 mg/kg/injection, schedule: Q01DX011 (ip), vehicle: water) was 37 % of control.
With `CCCCOC(=O)C1(N)CCCC1` the T/C (dose: 3.12 mg/kg/injection, schedule: Q01DX011 (ip), vehicle: carboxymethylcellulose (CMC)) was 75 % of control, the T/C (dose: 6.25 mg/kg/injection, schedule: Q01DX011 (ip), vehicle: carboxymethylcellulose (CMC)) was 80 % of control and the T/C (dose: 12.5 mg/kg/injection, schedule: Q01DX011 (ip), vehicle: carboxymethylcellulose (CMC)) was 66 % of control. For the same compound, the T/C [6] was 29 % of control and 35 % of control and the T/C [7] was 12 % of control.
In the case of `CCSc1ncnc2nc[nH]c12`, the T/C (dose: 2.5 mg/kg/injection, schedule: Q01DX011 (ip), vehicle: carboxymethylcellulose (CMC)) is reported as 40 % of control and the T/C [8] is reported as 1 % of control.
With `Cc1ccc(/C=N/Nc2nc3c([nH]2)c(=O)n(C)c(=O)n3C)cc1` the T/C (dose: 30.0 mg/kg/injection, schedule: Q01DX011 (ip), vehicle: carboxymethylcellulose (CMC)) was 95 % of control, the T/C [9] was 115 % of control and the T/C [10] was 112 % of control. For the same compound, the T/C [11] was 81 % of control.
In the case of `Nc1nc(S(N)(=O)=O)nc2nc[nH]c12`, the T/C [6] is reported as 57 % of control, the T/C (dose: 75.0 mg/kg/injection, schedule: Q01DX011 (ip), vehicle: carboxymethylcellulose (CMC)) is reported as 82 % of control and the T/C (dose: 225.0 mg/kg/injection, schedule: Q01DX011 (ip), vehicle: carboxymethylcellulose (CMC)) is reported as 72 % of control.
In the case of `N#[N+]c1cn(C2CC(O)C(CO)O2)c(=O)[nH]c1=O` (stereo not drawn), the T/C (dose: 30.0 mg/kg/injection, schedule: Q01DX011 (ip), vehicle: saline) is reported as 106 % of control, the T/C (dose: 60.0 mg/kg/injection, schedule: Q01DX011 (ip), vehicle: saline) is reported as 118 % of control and the T/C (dose: 120.0 mg/kg/injection, schedule: Q01DX011 (ip), vehicle: saline) is reported as 94 % of control. The T/C (dose: 240.0 mg/kg/injection, schedule: Q01DX011 (ip), vehicle: saline) was 47 % of control.
`Cc1ccc(CNc2ncnc3c2cnn3C2CCCCO2)cc1` (stereo not drawn) was tested, and the T/C [3] was 109 % of control, the T/C [12] was 35 % of control and the T/C [4] was 88 % of control. For the same compound, the T/C [5] was 44 % of control.
`CNC=O` was tested, and the T/C (dose: 4.41 mg/kg/injection, schedule: Q01DX011 (ip), vehicle: carboxymethylcellulose (CMC)) was 107 % of control, the T/C (dose: 8.82 mg/kg/injection, schedule: Q01DX011 (ip), vehicle: carboxymethylcellulose (CMC)) was 94 % of control and the T/C (dose: 17.65 mg/kg/injection, schedule: Q01DX011 (ip), vehicle: carboxymethylcellulose (CMC)) was 110 % of control. For the same compound, the T/C (dose: 42.88 mg/kg/injection, schedule: Q01DX011 (ip), vehicle: carboxymethylcellulose (CMC)) was 60 % of control, the T/C [13] was 113 % of control and the T/C (dose: 85.75 mg/kg/injection, schedule: Q01DX011 (ip), vehicle: carboxymethylcellulose (CMC)) was 78 % of control. The T/C (dose: 90.0 mg/kg/injection, schedule: Q01DX011 (ip), vehicle: carboxymethylcellulose (CMC)) was 99 % of control, the T/C (dose: 93.67 mg/kg/injection, schedule: Q01DX011 (ip), vehicle: carboxymethylcellulose (CMC)) was 104 % of control and the T/C (dose: 137.2 mg/kg/injection, schedule: Q01DX011 (ip), vehicle: carboxymethylcellulose (CMC)) was 70 % of control. The T/C (dose: 144.0 mg/kg/injection, schedule: Q01DX011 (ip), vehicle: carboxymethylcellulose (CMC)) was 86 % of control, the T/C (dose: 180.0 mg/kg/injection, schedule: Q01DX011 (ip), vehicle: carboxymethylcellulose (CMC)) was 98 % of control and the T/C (dose: 187.35 mg/kg/injection, schedule: Q01DX011 (ip), vehicle: carboxymethylcellulose (CMC)) was 100 % of control and 111 % of control. The T/C (dose: 200.0 mg/kg/injection, schedule: Q01DX011 (ip), vehicle: saline) was 31 % of control, the T/C (dose: 228.6 mg/kg/injection, schedule: Q01DX011 (ip), vehicle: carboxymethylcellulose (CMC)) was 65 % of control and the T/C [11] was 101 % of control. For the same compound, the T/C [14] was 14 % of control, the T/C (dose: 300.0 mg/kg/injection, schedule: Q01DX011 (ip), vehicle: saline) was 1 % of control and the T/C (dose: 343.0 mg/kg/injection, schedule: Q01DX011 (ip), vehicle: carboxymethylcellulose (CMC)) was 20 % of control and 30 % of control. For the same compound, the T/C (dose: 360.0 mg/kg/injection, schedule: Q01DX011 (ip), vehicle: carboxymethylcellulose (CMC)) was 30 % of control and 35 % of control and the T/C (dose: 374.7 mg/kg/injection, schedule: Q01DX011 (ip), vehicle: carboxymethylcellulose (CMC)) was 103 % of control.
With `Ic1ncnc2c1ncn2C1CCCO1` (stereo not drawn) the T/C [7] was 94 % of control and the T/C [8] was 84 % of control.
`NC(=O)c1cc(N)nc(Cl)n1` was tested, and the T/C (dose: 15.0 mg/kg/injection, schedule: Q01DX011 (ip), vehicle: saline) was 102 % of control, the T/C (dose: 31.0 mg/kg/injection, schedule: Q01DX011 (ip), vehicle: saline) was 90 % of control and the T/C (dose: 62.0 mg/kg/injection, schedule: Q01DX011 (ip), vehicle: saline) was 87 % of control. For the same compound, the T/C (dose: 125.0 mg/kg/injection, schedule: Q01DX011 (ip), vehicle: saline) was 83 % of control and the T/C [14] was 61 % of control.
In the case of `CCCNc1ncnc2c1cnn2C`, the T/C (dose: 3.12 mg/kg/injection, schedule: Q01DX011 (ip), vehicle: methylcellulose (MC)) is reported as 84 % of control, the T/C (dose: 3.12 mg/kg/injection, schedule: Q01DX011 (ip), vehicle: saline) is reported as 101 % of control and the T/C (dose: 6.25 mg/kg/injection, schedule: Q01DX011 (ip), vehicle: methylcellulose (MC)) is reported as 80 % of control. For the same compound, the T/C (dose: 6.25 mg/kg/injection, schedule: Q01DX011 (ip), vehicle: saline) was 86 % of control, the T/C [15] was 32 % of control and the T/C (dose: 12.5 mg/kg/injection, schedule: Q01DX011 (ip), vehicle: saline) was 19 % of control. The T/C (dose: 25.0 mg/kg/injection, schedule: Q01DX011 (ip), vehicle: saline) was 8 % of control.
`C[C@]12CCC(=O)C=C1CC[C@@H]1[C@@H]2[C@@H](O)C[C@@]2(C)[C@H]1CC[C@]2(O)C(=O)COC(=O)c1ccc([N+](=O)[O-])cc1Cl` was tested, and the T/C (dose: 25.0 mg/kg/injection, schedule: Q01DX011 (sc), vehicle: water) was 43 % of control, the T/C (dose: 50.0 mg/kg/injection, schedule: Q01DX011 (sc), vehicle: water) was 17 % of control and the T/C (dose: 100.0 mg/kg/injection, schedule: Q01DX011 (sc), vehicle: water) was 23 % of control. For the same compound, the T/C (dose: 200.0 mg/kg/injection, schedule: Q01DX011 (sc), vehicle: water) was 4 % of control.
For `NC(=O)OCCI`, the T/C (dose: 3.1 mg/kg/injection, schedule: Q01DX011 (ip), vehicle: methylcellulose (MC)) was 47 % of control, the T/C [15] was 52 % of control and 61 % of control and the T/C (dose: 25.0 mg/kg/injection, schedule: Q01DX011 (ip), vehicle: methylcellulose (MC)) was 31 % of control and 47 % of control. For the same compound, the T/C (dose: 50.0 mg/kg/injection, schedule: Q01DX011 (ip), vehicle: methylcellulose (MC)) was 7 % of control and the T/C (dose: 100.0 mg/kg/injection, schedule: Q01DX011 (ip), vehicle: methylcellulose (MC)) was 1 % of control.
In the case of `Nc1ncnc2c1ncn2CCCl`, the T/C [12] is reported as 84 % of control and the T/C [4] is reported as 31 % of control.
For `CCC(C)Cn1cnc2c(=S)nc(N)[nH]c21` (stereo not drawn), the T/C [1] was 2 % of control.
With `CCCCCCC(=O)NC1=C(N2CC2)C(=O)C(NC(=O)CCCCCC)=C(N2CC2)C1=O` the T/C (dose: 11.25 mg/kg/injection, schedule: Q01DX011 (ip), vehicle: carboxymethylcellulose (CMC)) was 48 % of control and the T/C [13] was 4 % of control.
With `O=c1[nH]cnc2nc(S(=O)(=O)F)[nH]c12` the T/C [9] was 117 % of control, the T/C [10] was 121 % of control and the T/C [11] was 115 % of control.
For `C=C(Br)CN(CC)CCO`, the T/C (dose: 50.0 mg/kg/injection, schedule: Q01DX011 (ip), vehicle: other) was 66 % of control.
